Results reported in patent US9296723B2, “NAMPT inhibitors” (AbbVie Inc., priority 2012, dated 2016).

Columns and labels:
PC3 cells = test: NAMPT Cell Proliferation Assay (Cell Titer Glo); format: cell-based; conditions: Homo sapiens, PC-3, 120 h, incubated 5 days, cell viability
In short: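 PC3 cells (500/well, RPMI with 10% heat-inactivated FBS) were exposed to 10-fold compound dilutions from […] for 5 days at 37 °C, 5% CO2. Viability was read with Cell Titer Glo; IC50 from sigmoidal fit of percent inhibition.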

NAMPT [1] = target: T1, NAMPT (Homo sapiens, UniProt P43490); test: Time-Resolved Fluorescence Resonance Energy Transfer (TR-FRET) Binding Assay of NAMPT; conditions: 6.8 nM NAMPT, 200 nM probe, equilibrated 3 hours, no substrates
In short: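 Compound was mixed with enzyme, probe and antibody and equilibrated 3 h at room temperature. TR-FRET read at Ex 337 nm, Em 520/495 nm. Ratios were normalized to controls and fitted to a four-parameter logistic equation for IC50.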

NAMPT [2] = target: T1, NAMPT; test: TR-FRET Binding Assay of NAMPT with PRPP; conditions: 2 nM NAMPT, 2 nM probe, 200 µM PRPP and 2.5 mM ATP, equilibrated 16 hours
In short: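 TR-FRET probe displacement with 2 nM NAMPT, 2 nM probe and 1 nM Tb-anti-His antibody in the presence of 200 µM PRPP and 2.5 mM ATP, 2% DMSO (all final). Equilibrated 16 hours before reading to permit possible enzymatic modification of compounds.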

T1 sequence (P43490 whole entry): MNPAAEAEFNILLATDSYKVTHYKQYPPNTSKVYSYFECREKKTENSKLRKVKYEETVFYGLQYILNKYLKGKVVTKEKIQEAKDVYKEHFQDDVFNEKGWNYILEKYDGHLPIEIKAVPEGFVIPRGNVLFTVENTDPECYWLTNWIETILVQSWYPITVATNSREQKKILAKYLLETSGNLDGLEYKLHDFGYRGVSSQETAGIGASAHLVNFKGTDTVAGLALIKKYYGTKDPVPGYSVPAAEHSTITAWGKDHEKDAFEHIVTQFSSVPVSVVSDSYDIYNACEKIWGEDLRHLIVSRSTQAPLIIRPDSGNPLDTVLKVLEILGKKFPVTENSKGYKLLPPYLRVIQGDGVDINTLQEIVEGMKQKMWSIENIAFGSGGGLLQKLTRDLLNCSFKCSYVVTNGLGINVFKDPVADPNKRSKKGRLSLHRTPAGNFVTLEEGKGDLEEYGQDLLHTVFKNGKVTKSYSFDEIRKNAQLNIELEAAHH

| SMILES | IC50 (PC3 cells) | IC50 (NAMPT [1]) | IC50 (NAMPT [2]) |
| --- | --- | --- | --- |
| CCC(=O)N1CC(Oc2ccc(NC(=O)N3CC(c4cccnc4)C3)cc2)C1 [Example 130, N-{4-[(1-propanoylazetidin-3-yl)oxy]phenyl}-3-(pyridin-3-yl)azetidine-1-carboxamide] | 0.0787 µM | 0.0847 µM | 0.000559 µM |
| O=C(Nc1ccc(C2CN(C(=O)c3ccccc3)C2)cc1)N1CC(c2cccnc2)C1 [Example 107, N-[4-(1-benzoylazetidin-3-yl)phenyl]-3-(pyridin-3-yl)azetidine-1-carboxamide] | 0.00599 µM | 0.0123 µM | 0.000342 µM |
| COCC(=O)N1CCC(c2ccc(NC(=O)N3CC(c4cccnc4)C3)cc2)C1 (stereo not drawn) [Example 292, N-{4-[1-(methoxyacetyl)pyrrolidin-3-yl]phenyl}-3-(pyridin-3-yl)azetidine-1-carboxamide] | 0.0878 µM | 0.268 µM | 0.000259 µM |
| O=C(Nc1ccc(C2CN(C(=O)[C@H]3CCCO3)C2)cc1)N1CC(c2cccnc2)C1 [Example 103, 3-(pyridin-3-yl)-N-(4-{1-[(2R)-tetrahydrofuran-2-ylcarbonyl]azetidin-3-yl}phenyl)azetidine-1-carboxamide] | 0.0981 µM | 0.296 µM | 0.000287 µM |
| O=C(CN1CCCC1)N1CCC(c2ccc(NC(=O)N3CC(c4cccnc4)C3)cc2)CC1 [Example 194, 3-(pyridin-3-yl)-N-{4-[1-(pyrrolidin-1-ylacetyl)piperidin-4-yl]phenyl}azetidine-1-carboxamide] | 0.69 µM | 0.248 µM | 0.000592 µM |
| O=C(CCC(F)(F)F)N1CCC(c2ccc(NC(=O)N3CC(c4cccnc4)C3)cc2)C1 (stereo not drawn) [Example 271, 3-(pyridin-3-yl)-N-{4-[1-(4,4,4-trifluorobutanoyl)pyrrolidin-3-yl]phenyl}azetidine-1-carboxamide] | 0.0604 µM | 0.0469 µM | 0.000279 µM |
| CC(=O)C(=O)N1CCC(c2ccc(NC(=O)N3CC(c4cccnc4)C3)cc2)C1 (stereo not drawn) [Example 291, N-{4-[1-(2-oxopropanoyl)pyrrolidin-3-yl]phenyl}-3-(pyridin-3-yl)azetidine-1-carboxamide] | 0.15 µM | 0.0258 µM | 0.000207 µM |
| O=C(Nc1ccc(C2CN(C(=O)C3CCOC3)C2)cc1)N1CC(c2cccnc2)C1 (stereo not drawn) [Example 104, 3-(pyridin-3-yl)-N-{4-[1-(tetrahydrofuran-3-ylcarbonyl)azetidin-3-yl]phenyl}azetidine-1-carboxamide] | 0.0951 µM | 0.188 µM | 0.000389 µM |
| O=C1CC[C@H](C(=O)N2CC[C@@H](Oc3ccc(NC(=O)N4CC(c5cccnc5)C4)cc3)C2)N1 [Example 305, N-(4-{[(3R)-1-(5-oxo-D-prolyl)pyrrolidin-3-yl]oxy}phenyl)-3-(pyridin-3-yl)azetidine-1-carboxamide] | 1.82 µM | 0.435 µM | 0.000211 µM |
| CC(C)(O)C(=O)N1CCC(c2ccc(NC(=O)N3CC(c4cccnc4F)C3)cc2)CC1 [Example 156, 3-(2-fluoropyridin-3-yl)-N-{4-[1-(2-hydroxy-2-methylpropanoyl)piperidin-4-yl]phenyl}azetidine-1-carboxamide] | 0.0747 µM | 0.00271 µM | 0.000237 µM |
| CC(C)(O)C(=O)N1CC[C@H](Oc2ccc(NC(=O)N3CC(c4cccnc4)C3)cc2)C1 [Example 94, N-(4-{[(3S)-1-(2-hydroxy-2-methylpropanoyl)pyrrolidin-3-yl]oxy}phenyl)-3-(pyridin-3-yl)azetidine-1-carboxamide] | 0.598 µM | 0.488 µM | 0.000213 µM |
| CC(C)C(=O)N1CC(c2ccc(NC(=O)N3CC(c4cccnc4)C3)cc2)C1 [Example 101, N-{4-[1-(2-methylpropanoyl)azetidin-3-yl]phenyl}-3-(pyridin-3-yl)azetidine-1-carboxamide] | 0.0681 µM | 0.143 µM | 0.000629 µM |
| CCC(C)(C)C(=O)N1CC[C@@H](Oc2ccc(NC(=O)N3CC(c4cccnc4)C3)cc2)C1 [Example 330, N-(4-{[(3R)-1-(2,2-dimethylbutanoyl)pyrrolidin-3-yl]oxy}phenyl)-3-(pyridin-3-yl)azetidine-1-carboxamide] | 0.0123 µM | 0.0219 µM | 0.000364 µM |
| COCC(=O)N1CC(Oc2ccc(NC(=O)N3CC(c4cccnc4)C3)cc2)C1 [Example 120, N-(4-{[1-(methoxyacetyl)azetidin-3-yl]oxy}phenyl)-3-(pyridin-3-yl)azetidine-1-carboxamide] | 0.078 µM | 0.145 µM | 0.000689 µM |
| O=C(Nc1ccc(OC2CCN(C(=O)C3CC3)CC2)cc1)N1CC(c2cccnc2)C1 [Example 47, N-(4-{[1-(cyclopropylcarbonyl)piperidin-4-yl]oxy}phenyl)-3-(pyridin-3-yl)azetidine-1-carboxamide] | 0.064 µM | 0.0303 µM | 0.000268 µM |
| O=C(CC1C[C@@H]2CC[C@H]1C2)N1CCC(c2ccc(NC(=O)N3CC(c4cccnc4)C3)cc2)CC1 (stereo partly drawn) [Example 165, N-(4-{1-[(1S,4R)-bicyclo[2.2.1]hept-2-ylacetyl]piperidin-4-yl}phenyl)-3-(pyridin-3-yl)azetidine-1-carboxamide] | 0.0619 µM | 0.0144 µM | 0.000389 µM |
| CCC(=O)N1CCC(c2ccc(NC(=O)N3CC(c4cccnc4)C3)cc2)C1 (stereo not drawn) [Example 279, N-[4-(1-propanoylpyrrolidin-3-yl)phenyl]-3-(pyridin-3-yl)azetidine-1-carboxamide] | 0.0476 µM | 0.0921 µM | 0.000204 µM |
| CC(C)(O)C(=O)N1CCC(c2ccc(NC(=O)N3CC(c4cccnc4)C3)cc2)CC1 [Example 51, N-{4-[1-(2-hydroxy-2-methylpropanoyl)piperidin-4-yl]phenyl}-3-(pyridin-3-yl)azetidine-1-carboxamide] | 0.00178 µM | 0.0172 µM | 0.000303 µM |
| O=C(Nc1ccc(OC2CN(C(=O)C3CCCC3)C2)cc1)N1CC(c2cccnc2)C1 [Example 142, N-(4-{[1-(cyclopentylcarbonyl)azetidin-3-yl]oxy}phenyl)-3-(pyridin-3-yl)azetidine-1-carboxamide] | 0.00791 µM | 0.0246 µM | 0.000339 µM |
| COCCOCC(=O)N1CC[C@@H](Oc2ccc(NC(=O)N3CC(c4cccnc4)C3)cc2)C1 [Example 320, N-[4-({(3R)-1-[(2-methoxyethoxy)acetyl]pyrrolidin-3-yl}oxy)phenyl]-3-(pyridin-3-yl)azetidine-1-carboxamide] | 0.155 µM | 0.208 µM | 0.000407 µM |
| O=C(CC1CCOCC1)N1CC(c2ccc(NC(=O)N3CC(c4cccnc4)C3)cc2)C1 [Example 100, 3-(pyridin-3-yl)-N-{4-[1-(tetrahydro-2H-pyran-4-ylacetyl)azetidin-3-yl]phenyl}azetidine-1-carboxamide] | 0.0273 µM | 0.108 µM | 0.000309 µM |
| Cn1cccc1C(=O)N1CCC(c2ccc(NC(=O)N3CC(c4cccnc4)C3)cc2)CC1 [Example 191, N-(4-{1-[(1-methyl-1H-pyrrol-2-yl)carbonyl]piperidin-4-yl}phenyl)-3-(pyridin-3-yl)azetidine-1-carboxamide] | 0.00746 µM | 0.00427 µM | 0.000291 µM |
| CN(C)CCC(=O)N1CC(Oc2ccc(NC(=O)N3CC(c4cccnc4)C3)cc2)C1 [Example 150, N-(4-{[1-(N,N-dimethyl-beta-alanyl)azetidin-3-yl]oxy}phenyl)-3-(pyridin-3-yl)azetidine-1-carboxamide] | 1.05 µM | 0.435 µM | 0.00285 µM |
| O=C(Nc1ccc(O[C@@H]2CCN(C(=O)[C@@H]3CCCO3)C2)cc1)N1CC(c2cccnc2)C1 [Example 78, 3-(pyridin-3-yl)-N-[4-({(3R)-1-[(2S)-tetrahydrofuran-2-ylcarbonyl]pyrrolidin-3-yl}oxy)phenyl]azetidine-1-carboxamide] | 0.056 µM | 0.137 µM | 0.000226 µM |
| O=C(Nc1ccc(C2CCN(C(=O)c3ccsc3)CC2)cc1)N1CC(c2cccnc2)C1 [Example 185, 3-(pyridin-3-yl)-N-{4-[1-(thiophen-3-ylcarbonyl)piperidin-4-yl]phenyl}azetidine-1-carboxamide] | 0.00918 µM | 0.00323 µM | 0.000228 µM |
| CC(C)(C)CN1CCC(c2ccc(NC(=O)N3CC(c4cccnc4)C3)cc2)CC1 [Example 238, N-{4-[1-(2,2-dimethylpropyl)piperidin-4-yl]phenyl}-3-(pyridin-3-yl)azetidine-1-carboxamide] | 0.746 µM | 4.01 µM | 0.00141 µM |
| CC(C)(C)CC(=O)N1CCC(Oc2ccc(NC(=O)N3CC(c4cccnc4)C3)cc2)CC1 [Example 45, N-(4-{[1-(3,3-dimethylbutanoyl)piperidin-4-yl]oxy}phenyl)-3-(pyridin-3-yl)azetidine-1-carboxamide] | 0.0634 µM | 0.0343 µM | 0.000223 µM |
| CC(C)CCN1CC(c2ccc(NC(=O)N3CC(c4cccnc4)C3)cc2)C1 [Example 252, N-{4-[1-(3-methylbutyl)azetidin-3-yl]phenyl}-3-(pyridin-3-yl)azetidine-1-carboxamide] | 0.401 µM | 0.526 µM | 0.000296 µM |
| CC(C)(C)OC(=O)N1CCC(c2ccc(NC(=O)N3CC(c4cnccc4Cl)C3)cc2)CC1 [Example 113, tert-butyl 4-[4-({[3-(4-chloropyridin-3-yl)azetidin-1-yl]carbonyl}amino)phenyl]piperidine-1-carboxylate] | 0.113 µM | 0.0758 µM | 0.0147 µM |
